According to the pKa sets of Baltruschat and Czodrowski (2020):

| Compound | pKa (basic group) | pKa (acidic group) |
| --- | --- | --- |
| Nc1cc([N+](=O)[O-])c2ccccc2c1 | 2.62 |  |
| OC(O)=C1SCc2ccccc21 |  | 5.32 |
| CC(O)CN(CC(C)O)C(C)(C)C (stereo not drawn) | 9.36 |  |
| N[C@H]1CCCC[C@@H]1N | 9.75 |  |
| Cc1cc(N)ccc1-c1ccc(N)cc1C | 4.9 |  |
| CC(C)CN[C@H](c1ccccc1)[C@H](O)c1ccccc1 | 11.3 |  |
| CC(=O)Nc1ccc2cc3ccccc3nc2c1 | 5.6 |  |
| O=P([O-])([O-])C(NCc1cccnc1)c1ccccc1[O-] (stereo not drawn) | 12.2 |  |
| CCc1cc(C)nnc1C | 4.73 |  |
| Cc1cc(O)cc(C)[o+]1 |  | 0.38 |
| CC/C=C/CC1=NC(C(=O)[O-])[C@@H]2SC(C)(C)C(C(=O)[O-])N12 (stereo partly drawn) | 7.8 |  |
| [NH3+]C(Cc1cnc[nH]1)C(=O)NCC(=O)[O-] (stereo not drawn) | 6.67 |  |
| Oc1nc2cc3c(cc2[nH]1)CCCC3 |  | 12.2 |
| CNC(=O)CS(=O)(=O)NC(N)=O |  | 4.89 |
| O=[N+]([O-])c1ccccc1/C=N\O |  | 10.7 |
| Cc1ccc[n+](O)c1 |  | 1.08 |
| COc1cccc(C2NCCS2)c1 (stereo not drawn) | 5.12 |  |
| COc1cc(CN)ccc1O | 8.94 | 10.5 |
| COc1ccc(C2NCCS2)cc1 (stereo not drawn) | 5.45 |  |
| CC(C[Si](C)(C)CCCCl)C(=O)O (stereo not drawn) |  | 5.05 |
| O=C(O)/C=C/c1ccc(O)cc1 |  | 4.64 |
| CCC(=O)C(c1ccccc1)(c1ccccc1)[C@@H](C)CN(C)C | 8.07 |  |
| C[NH+](C)CCCCCCNC(=O)/C=N/O |  | 8.93 |
| CC(C)(C)CC(=O)n1cnc(Br)c1 | 4 |  |

| Compound | pKa (basic group) | pKa (acidic group) |
| --- | --- | --- |
| Nc1cccc2nccnc12 | 2.62 |  |
| NCC(N)=O |  | 8.05 |
| Cc1cnc(NS(=O)(=O)c2ccc(N)cc2)nc1C |  | 6 |
| Cn1ccc(=N)c2ccccc21 | 12.4 |  |
| CCCCCCCCCCCCCCCCCCN(CC(O)CC)CC(O)CC (stereo not drawn) | 5.6 |  |
| O=S(=O)(NCc1ccccc1)c1ccc(Br)cc1 |  | 10.7 |
| COc1ccc(-c2nc3cnccc3n2C)c(OC)c1 | 6.16 |  |
| O=C(O)c1cccc(Cl)c1 |  | 3.8 |
| Cc1cc(O)ccc1[N+](C)(C)C |  | 8.34 |
| Cc1ccc(C(=O)C(=O)O)cc1C |  | 1.36 |
| N=C(N)Nc1nc(N)nc(N)n1 | 9.4 |  |
| O=C1CCC(=O)C1=O |  | 8.48 |
| C=CC(C)(C)NC(C)(C)CC | 10.8 |  |
| CN(C)N | 7.16 |  |
| O=C(O)Cn1ccc2ccccc21 |  | 3.4 |
| C[NH+](C)CCNc1ccnc2cccc([N+](=O)[O-])c12 | 5.77 |  |
| CC(C)(N)C#N | 5.3 |  |
| Cc1cccc(S(=O)(=O)O)c1 |  | -6.56 |
| CCCc1c(-c2ccccc2)n[nH]c1O |  | 8 |
| Cc1ccccc1OCC(=O)O |  | 3.17 |
| Cc1cccc(NS(=O)(=O)c2ccccc2)c1 |  | 8.48 |
| CN(C)Cc1cc(C[NH+](C)C)cc(O)c1O | 7.22 |  |
| CCC[n+]1cccc2cc(O)ccc21 |  | 7.08 |
| CNCC(=O)NC | 8.28 |  |

| Compound | pKa (basic group) | pKa (acidic group) |
| --- | --- | --- |
| CCn1nc(-c2ccccc2)sc1=N | 6.1 |  |
| N#CC(N)c1ccccc1 (stereo not drawn) | 4.4 |  |
| NC1=N[C@H]2C[C@@H](N1)N[C@@H]2C(=O)[O-] | 12.6 |  |
| Nc1cncn1[C@H]1O[C@@H](CO)[C@H](O)[C@@H]1O | 6.05 |  |
| CCn1c(=O)n(C)c2ccccc21 | -3.7 |  |
| CNc1c(C)cccc1C | 6.12 |  |
| Cc1ccc(O)cc1Cc1cc([N+](=O)[O-])ccc1[O-] |  | 10.3 |
| CCc1cccc(CN(C)C)c1O | 8.02 |  |
| CSc1ccccn1 | 3.62 |  |
| Cc1cccc(C[N+](=O)[O-])c1 |  | 6.97 |
| Brc1ccc(-c2cnc(-c3ccccc3)o2)cc1 | 0.65 |  |
| CC(C)[NH2+]CC(O)c1cccc(N)c1 (stereo not drawn) | 4.22 |  |
| C[C@H]1CCN2CCC[C@@H]12 | 11.4 |  |
| Cn1ccc(=NC(=O)c2ccccc2)cc1 | 9.89 |  |
| CC(=O)N=S(C)C | 3.16 |  |
| CNc1ccc[nH+]c1 | -2.17 |  |
| O=C(Cc1ccccc1)c1cc[n+]([CH-]c2cccc([N+](=O)[O-])c2)cc1 |  | 11.6 |
| [NH3+]c1ccccc1C(=O)O |  | 2.08 |
| CC(=O)N(N=C(C)C)C1CCN(C)CC1 | 8.6 |  |
| CC(C)C1NC(=S)NC1=O (stereo not drawn) |  | 8.7 |
| Oc1ccc2cnncc2c1 | 3.94 | 7.95 |
| CCC(O)CN(C)CCO (stereo not drawn) | 8.7 |  |
| Nc1ccc(C(=O)c2ccc([NH3+])cc2)cc1 | 1.37 |  |
| O=C(CCCN1CCOCC1)c1ccccc1 | 7.26 |  |

| Compound | pKa (basic group) | pKa (acidic group) |
| --- | --- | --- |
| Nc1nnnn1-c1ccc(Cl)cc1 | 0.78 |  |
| N[C@H]1C[C@H]2CCCC[C@@H]2C[C@@H]1N | 10.1 |  |
| C[N+]1(CCCC(=O)O)CCCCC1 |  | 4.11 |
| C=C[C@]1(O)C[C@H](C)N[C@@H]2CCCC[C@H]21 | 9.83 |  |
| CC(C)C(=O)CC(=O)C(C)C |  | 9.86 |
| Cc1nc(C)c(C)[nH+]c1C | -2.73 |  |
| Oc1c2ccccc2[nH+]c2ccccc12 |  | 0.32 |
| Cc1ccc(OC(=O)CCCN(C)C)cc1 | 9.53 |  |
| Cc1cc2ncn([C@H]3O[C@@H](CO)[C@H](O)[C@@H](O)[C@@H]3O)c2cc1C | 4.63 |  |
| CC[NH+](CC)CCCCCCNc1c2ccc(Cl)cc2nc2ccc(OC)cc12 | 8.12 |  |
| COC(=O)C1=CCCNC1 | 8.7 |  |
| CN(C)C(=S)c1ccccc1 | -2.3 |  |
| O=[N+]([O-])C(CO)CO |  | 9.07 |
| Nc1ccc(S(=O)(=O)Nc2cccc[nH+]2)cc1 | 1 |  |
| Nc1ccccn1 | 6.95 |  |
| NCCC[Se-] | 11.3 |  |
| CC1=NS(=O)(=O)c2ncccc2N1 |  | 7.58 |
| Sc1ccc(Cl)cc1 |  | 5.82 |
| c1ccc2[nH]cnc2c1 | 5.51 | 12.6 |
| COc1c(C(=O)O)oc2ccccc12 |  | 3.7 |
| CC(=O)c1ccc(NS(=O)(=O)c2ccccc2)cc1 |  | 6.94 |
| O=[N+]([O-])c1cccc(S)c1 |  | 5.24 |
| O=P([O-])([O-])C([NH2+]Cc1ccccn1)c1ccccc1O (stereo not drawn) |  | 10.2 |
| Oc1cccc2ccnnc12 | 2.72 | 8.25 |

| Compound | pKa (basic group) | pKa (acidic group) |
| --- | --- | --- |
| CN(C)C(=O)CS |  | 8.1 |
| COc1ccccc1/C=C/C(=O)O |  | 4.57 |
| O=C(Oc1ccc(Cl)cc1)C1c2ccccc2-c2ccccc21 |  | 10.3 |
| Cc1cc(C(=O)O)cs1 |  | 4.24 |
| [NH3+]C/C=C\C(=O)O |  | 3.53 |
| C[n+]1cc(O)c2ccccc2c1 |  | 4.93 |
| C[n+]1ccn(CCC[n+]2ccc(/C=N/O)cc2)c1 |  | 8.05 |
| O[n+]1ccc(OCc2ccccc2)cc1 |  | 1.99 |
| [O-]c1ccc(Cl)cc1CN1CCCCC1 | 11.8 |  |
| CC(C)SC(=N)c1ccccc1 | 8.04 |  |
| N=C(c1ccccc1)c1cccc(Cl)c1 | 5.69 |  |
| CCOCCNc1ccc(Cl)cc1 | 3.28 |  |
| CN(C)CC(P(=O)([O-])[O-])P(=O)([O-])[O-] | 8.98 |  |
| COc1ccc(O)cc1 |  | 10.2 |
| C1N2CN3CN1CN(C2)C3 | 4.95 |  |
| CCN1CC1 | 7.91 |  |
| CCCS(=O)O |  | 2.35 |
| COC(=O)c1ccc(NC=S)cc1 |  | 10.9 |
| CN(C)CCBr | 7.55 |  |
| CC[C@H]1[C@H](CC2=N/C(=C/c3[nH]c(C[C@@H]4NC(=O)[C@H](CC)[C@H]4C)c(C)c3CCC(=O)[O-])C(CCC(=O)[O-])=C2C)NC(=O)[C@@H]1C | 7.6 |  |
| CN([NH3+])C(N)=S | 1.2 |  |
| O=C([O-])c1c2ccccc2nc2ccccc12 | 5 |  |
| Oc1cccc(O)c1 |  | 9.56 |
| NCc1cccc(S(N)(=O)=O)c1 | 8.55 | 10.1 |

| Compound | pKa (basic group) | pKa (acidic group) |
| --- | --- | --- |
| Cc1cnc(C)c(C)n1 | 2.65 |  |
| Nc1c(O)cccc1O | 5.1 | 9.3 |
| Nc1ccc(S(=O)(=O)Nc2ccc(N)nc2)cc1 | 4.19 | 8.82 |
| c1ccc(-c2cccc(-c3cccc[nH+]3)n2)nc1 | 3.28 |  |
| NC(=O)CS(N)(=O)=O |  | 9.7 |
| CCOC(=O)C1CN2CCC1CC2 (stereo not drawn) | 9.64 |  |
| Cc1nccc2c1[nH]c1ccc([N+](=O)[O-])cc12 | 6.24 |  |
| Cc1cncc(C)[nH+]1 | -4.48 |  |
| Cc1nnc(NS(=O)(=O)c2ccc(O)cc2)s1 |  | 5.37 |
| C=CC(=O)O |  | 4.25 |
| COc1ccc(-c2cnc(-c3ccccc3)o2)cc1 | 1.05 |  |
| Nc1nc(N)nc(N)n1 | 5.06 |  |
| CCOP(=O)(CN1CCOCC1)OCC | 4 |  |
| O=C([O-])c1cc(O)c(O)c(C(=O)[O-])[o+]1 |  | 9.82 |
| COc1ccccc1CCC(=O)O |  | 4.8 |
| CCc1cnc2c(ccc3cccnc32)c1 | 4.98 |  |
| COC(=O)c1ccccc1N(C)C | 5.55 |  |
| CCCCCCCCCCCCN(CC(C)O)CC(C)O (stereo not drawn) | 7.8 |  |
| CC(=O)Nc1nnc(-c2ccccc2)s1 |  | 8.9 |
| O=C(Cc1ccccc1)C(CN1CCOCC1)c1ccccc1 (stereo not drawn) | 6.17 |  |
| O=[N+]([O-])c1ccccc1-c1nnn[nH]1 |  | 2.98 |
| NC(=O)C(CCC(=O)O)c1ccccc1 (stereo not drawn) |  | 4.64 |
| CN1[C@H]2CC[C@@H]1[C@H](C(=O)[O-])[C@H](O)C2 | 11.1 |  |
| [NH3+]C(CC(=O)[O-])C(=O)NC(CC(=O)O)C(=O)[O-] (stereo not drawn) |  | 4.7 |

| Compound | pKa (basic group) | pKa (acidic group) |
| --- | --- | --- |
| NCCOCCO | 9.43 |  |
| CCOC(=O)C(CC)C(C)=O (stereo not drawn) |  | 12.7 |
| CC(C)(C)n1ccnc1 | 7.35 |  |
| CN(C)CCOCC[NH+](C)C | 8.21 |  |
| CCCCn1ccnc1 | 7.14 |  |
| Cc1c(C)c2c(c(C)c1OP(=O)([O-])O)CCC(C)(CCC[C@@H](C)CCC[C@@H](C)CCCC(C)C)O2 (stereo partly drawn) |  | 9.44 |
| C=C[C@]1(O)C[NH+]2CC[C@H]1C[C@H]2[C@H](O)c1cc(O)[nH+]c2ccccc12 |  | 2.76 |
| O=C([O-])[C@H](P)CC[C@H](P)C(=O)O |  | 4.49 |
| Oc1ccccc1-c1ccccc1 |  | 9.99 |
| C[C@@H]1CCCC[C@@H]1N | 10.6 |  |
| Nc1ncc2[nH]cnc2n1 | 3.8 | 9.93 |
| Cc1ccc(OC(=O)CCCCN(C)C)cc1 | 9.87 |  |
| CC(Br)(CN)[N+](=O)[O-] (stereo not drawn) | 6.15 |  |
| CN(C)c1ncccn1 | 3.96 |  |
| CN(C)c1cccc2c(S(=O)(=O)NCC(=O)O)cccc12 |  | 4.4 |
| NC/C=C/C(=O)[O-] | 9.46 |  |
| Nc1nnnn1CC(=O)O |  | 2.38 |
| O=[N+]([O-])c1ccc2[nH]c(CCl)nc2c1 | 2.21 |  |
| Cc1n[nH]c2c(N)cccc12 | 3.18 |  |
| CCCCC([NH3+])C(=O)O (stereo not drawn) |  | 2.29 |
| c1ccc(CSc2ccccn2)cc1 | 3.23 |  |
